Where “and” joins values, the source holds several entries; their conditions need not be identical. Equal entries are not always repeated. Toxic doses and inconclusive results are not listed. Rule as the data show it: active = T/C of 150% or more; inactive = T/C below 125%.
Test system: L1210 leukemia ip in BDF1 mice, survival T/C
Test: NCI In Vivo Anticancer Drug Screen. Data for tumor model L1210 Leukemia (intraperitoneal) in B6D2F1 (BDF1) mice
Conditions: endpoint: mean survival time, higher = longer survival
Summary of the method: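 Antitumor effect is assessed in tumor-bearing animals. Survival in the compound arm is compared with a vehicle-dosed control arm and expressed as their quotient.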

[1] = dose: 100.0 mg/kg/injection, schedule: Q04DX003 (ip), vehicle: carboxymethylcellulose (CMC)
[2] = dose: 200.0 mg/kg/injection, schedule: Q04DX003 (ip), vehicle: carboxymethylcellulose (CMC)
[3] = dose: 100.0 mg/kg/injection, schedule: Q04DX002 (ip), vehicle: Klucel (hydroxypropylcellulose) (HPC)
[4] = dose: 200.0 mg/kg/injection, schedule: Q04DX002 (ip), vehicle: Klucel (hydroxypropylcellulose) (HPC)
[5] = dose: 400.0 mg/kg/injection, schedule: Q04DX002 (ip), vehicle: Klucel (hydroxypropylcellulose) (HPC)
[6] = dose: 100.0 mg/kg/injection, schedule: Q01DX009 (ip), vehicle: Klucel (hydroxypropylcellulose) (HPC)
[7] = dose: 200.0 mg/kg/injection, schedule: Q01DX009 (ip), vehicle: Klucel (hydroxypropylcellulose) (HPC)
[8] = dose: 100.0 mg/kg/injection, schedule: Q04DX003 (ip), vehicle: Klucel (hydroxypropylcellulose) (HPC)
[9] = dose: 200.0 mg/kg/injection, schedule: Q04DX003 (ip), vehicle: Klucel (hydroxypropylcellulose) (HPC)
[10] = dose: 400.0 mg/kg/injection, schedule: Q04DX003 (ip), vehicle: Klucel (hydroxypropylcellulose) (HPC)

Measured: T/C

Cc1cc(N)c2cc(NC(=O)CCCCCCCCC(=O)Nc3ccc4nc(C)cc(N)c4c3)ccc2n1
inactive: dose: 8.9 mg/kg/injection, schedule: Q01DX Z (ip), vehicle: saline 103 % of control and 114 % of control | dose: 12.0 mg/kg/injection, schedule: Q01DX Z (ip), vehicle: methylcellulose (MC) 96 % of control | dose: 12.0 mg/kg/injection, schedule: Q01DX Z (ip), vehicle: saline 121 % of control | dose: 13.3 mg/kg/injection, schedule: Q01DX Z (ip), vehicle: carboxymethylcellulose (CMC) 114 % of control | dose: 13.3 mg/kg/injection, schedule: Q01DX Z (ip), vehicle: saline 111 % of control | dose: 18.0 mg/kg/injection, schedule: Q01DX Z (ip), vehicle: methylcellulose (MC) 100 % of control | dose: 18.0 mg/kg/injection, schedule: Q01DX Z (ip), vehicle: saline 119 % of control | dose: 20.0 mg/kg/injection, schedule: Q01DX Z (ip), vehicle: carboxymethylcellulose (CMC) 112 % of control | dose: 20.0 mg/kg/injection, schedule: Q01DX Z (ip), vehicle: saline 114 % of control and 122 % of control | dose: 27.0 mg/kg/injection, schedule: Q01DX Z (ip), vehicle: methylcellulose (MC) 96 % of control | dose: 27.0 mg/kg/injection, schedule: Q01DX Z (ip), vehicle: saline 123 % of control | dose: 30.0 mg/kg/injection, schedule: Q01DX Z (ip), vehicle: carboxymethylcellulose (CMC) 108 % of control | dose: 30.0 mg/kg/injection, schedule: Q01DX Z (ip), vehicle: saline 115 % of control | dose: 40.0 mg/kg/injection, schedule: Q01DX Z (ip), vehicle: methylcellulose (MC) 96 % of control | dose: 40.0 mg/kg/injection, schedule: Q01DX Z (ip), vehicle: saline 121 % of control | dose: 50.0 mg/kg/injection, schedule: Q01DX001 (ip), vehicle: saline 106 % of control | dose: 90.0 mg/kg/injection, schedule: Q01DX Z (ip), vehicle: methylcellulose (MC) 107 % of control | dose: 90.0 mg/kg/injection, schedule: Q01DX Z (ip), vehicle: saline 113 % of control and 121 % of control and 86 % of control | dose: 100.0 mg/kg/injection, schedule: Q01DX001 (ip), vehicle: saline 120 % of control | [1] 121 % of control | dose: 135.0 mg/kg/injection, schedule: Q01DX Z (ip), vehicle: methylcellulose (MC) 93 % of control | dose: 200.0 mg/kg/injection, schedule: Q01DX001 (ip), vehicle: saline 112 % of control | [2] 117 % of control | dose: 400.0 mg/kg/injection, schedule: Q04DX003 (ip), vehicle: carboxymethylcellulose (CMC) 116 % of control

CCOC(=O)Nc1ccccn1
inactive: [3] 100 % of control | [4] 103 % of control | [5] 92 % of control

c1cc2c(cc1-c1nnc(-c3ccc4c(c3)OCO4)nn1)OCO2
inactive: dose: 400.0 mg/kg/injection, schedule: Q01DX001 (ip), vehicle: saline with Tween-80 86 % of control

C/C=C/C(=O)Nc1ccccc1F
inactive: [6] 93 % of control | [7] 103 % of control

Cc1ccccc1NC(=O)Oc1ccc(C2CCCCC2)cc1
inactive: [3] 103 % of control | [4] 91 % of control | [5] 100 % of control

OCC1OC([Se])C(O)C(O)C1O.[CH3][Sb][CH3] (stereo not drawn)
inactive: dose: 3.13 mg/kg/injection, schedule: Q01DX009 (ip), vehicle: Klucel (hydroxypropylcellulose) (HPC) 99 % of control | dose: 6.25 mg/kg/injection, schedule: Q01DX009 (ip), vehicle: Klucel (hydroxypropylcellulose) (HPC) 96 % of control and 98 % of control | dose: 12.5 mg/kg/injection, schedule: Q01DX009 (ip), vehicle: Klucel (hydroxypropylcellulose) (HPC) 99 % of control and 104 % of control | dose: 25.0 mg/kg/injection, schedule: Q01DX009 (ip), vehicle: Klucel (hydroxypropylcellulose) (HPC) 91 % of control

COC(COS(=O)(=O)c1ccc(Br)cc1)(c1ccccc1)c1ccccc1
inactive: dose: 50.0 mg/kg/injection, schedule: Q01DX009 (ip), vehicle: saline with Tween-80 87 % of control

CC(=O)OC1(c2ccccc2)OC(=O)C(C)(C)c2ccccc21 (stereo not drawn)
inactive: dose: 100.0 mg/kg/injection, schedule: Q01DX001 (ip), vehicle: saline with Tween-80 94 % of control | dose: 200.0 mg/kg/injection, schedule: Q01DX001 (ip), vehicle: saline with Tween-80 91 % of control

CC(C)CC(=O)CC(O)(C(F)(F)F)C(F)(F)F
inactive: dose: 50.0 mg/kg/injection, schedule: Q01DX009 (ip), vehicle: saline 101 % of control | dose: 50.0 mg/kg/injection, schedule: Q04DX003 (ip), vehicle: saline 94 % of control | dose: 100.0 mg/kg/injection, schedule: Q01DX009 (ip), vehicle: saline 104 % of control | dose: 100.0 mg/kg/injection, schedule: Q04DX003 (ip), vehicle: saline 92 % of control | dose: 200.0 mg/kg/injection, schedule: Q01DX009 (ip), vehicle: saline 104 % of control | dose: 200.0 mg/kg/injection, schedule: Q04DX003 (ip), vehicle: saline 100 % of control | dose: 400.0 mg/kg/injection, schedule: Q01DX009 (ip), vehicle: saline 93 % of control | dose: 400.0 mg/kg/injection, schedule: Q04DX003 (ip), vehicle: saline 103 % of control

O=C(Nc1ccc(C(=O)O)c(O)c1)Nc1ccccc1C(F)(F)F
inactive: dose: 50.0 mg/kg/injection, schedule: Q01DX001 (ip), vehicle: carboxymethylcellulose (CMC) 92 % of control | dose: 50.0 mg/kg/injection, schedule: Q01DX009 (ip), vehicle: carboxymethylcellulose (CMC) 100 % of control and 106 % of control | dose: 50.0 mg/kg/injection, schedule: Q04DX003 (ip), vehicle: carboxymethylcellulose (CMC) 93 % of control | dose: 100.0 mg/kg/injection, schedule: Q01DX001 (ip), vehicle: carboxymethylcellulose (CMC) 101 % of control | dose: 100.0 mg/kg/injection, schedule: Q01DX009 (ip), vehicle: carboxymethylcellulose (CMC) 105 % of control and 92 % of control | dose: 100.0 mg/kg/injection, schedule: Q04DX002 (ip), vehicle: carboxymethylcellulose (CMC) 94 % of control and 97 % of control | [1] 88 % of control | dose: 200.0 mg/kg/injection, schedule: Q01DX001 (ip), vehicle: carboxymethylcellulose (CMC) 97 % of control | dose: 200.0 mg/kg/injection, schedule: Q01DX009 (ip), vehicle: carboxymethylcellulose (CMC) 91 % of control and 92 % of control | dose: 200.0 mg/kg/injection, schedule: Q04DX002 (ip), vehicle: carboxymethylcellulose (CMC) 101 % of control and 108 % of control | [2] 89 % of control | dose: 400.0 mg/kg/injection, schedule: Q04DX002 (ip), vehicle: carboxymethylcellulose (CMC) 103 % of control

CC1=CC(=O)[C@@H](O)[C@]2(C)[C@H]3[C@@]4(O)OC[C@]35[C@H]([C@@H](C)[C@H]4O)[C@@H](OC(=O)c3ccccc3)C(=O)O[C@@H]5C[C@@H]12
inactive: dose: 0.25 mg/kg/injection, schedule: Q01DX009 (ip), vehicle: saline with Tween-80 102 % of control | dose: 0.5 mg/kg/injection, schedule: Q01DX009 (ip), vehicle: saline with Tween-80 103 % of control | dose: 1.0 mg/kg/injection, schedule: Q01DX009 (ip), vehicle: saline with Tween-80 103 % of control | dose: 2.0 mg/kg/injection, schedule: Q01DX009 (ip), vehicle: saline with Tween-80 108 % of control | dose: 4.0 mg/kg/injection, schedule: Q01DX009 (ip), vehicle: saline with Tween-80 111 % of control

COc1cc(NC(=O)Nc2cc(Cl)ccc2C)c(OC)cc1Cl
inactive: dose: 100.0 mg/kg/injection, schedule: Q01DX001 (ip), vehicle: Klucel (hydroxypropylcellulose) (HPC) 97 % of control | [6] 94 % of control and 88 % of control | [3] 104 % of control | [8] 103 % of control | dose: 200.0 mg/kg/injection, schedule: Q01DX001 (ip), vehicle: Klucel (hydroxypropylcellulose) (HPC) 103 % of control | [7] 87 % of control and 90 % of control | [4] 98 % of control | [9] 101 % of control | dose: 400.0 mg/kg/injection, schedule: Q01DX001 (ip), vehicle: Klucel (hydroxypropylcellulose) (HPC) 95 % of control | dose: 400.0 mg/kg/injection, schedule: Q01DX009 (ip), vehicle: Klucel (hydroxypropylcellulose) (HPC) 88 % of control | [5] 89 % of control | [10] 92 % of control

CCNC(=O)C1C2C=CC(C2)C1C(=O)NCC (stereo not drawn)
inactive: dose: 100.0 mg/kg/injection, schedule: Q04DX003 (ip), vehicle: saline with Tween-80 91 % of control | dose: 200.0 mg/kg/injection, schedule: Q04DX003 (ip), vehicle: saline with Tween-80 96 % of control | dose: 400.0 mg/kg/injection, schedule: Q04DX003 (ip), vehicle: saline with Tween-80 87 % of control

CCOC(=O)Cn1c(=O)c2ccccc2c2ccccc21
inactive: [8] 97 % of control | [9] 104 % of control | [10] 101 % of control
